Values quoted from earlier work, collected in US10183028B2, “Enrichment method of ergosterol peroxide from sporoderm-broken Ganoderma lucidum spore powder” (Guangzhou Polysarm Bioscience Corp., priority 2015, dated 2019).

Tests used:
Hela cancer cells = conditions: Chinese application 201410311586.3
[1] = system: human breast cancer and liver cancer; conditions: Chinese application 200610126091.9
[2] = system: malignant breast cancer cells (MT-1); conditions: Chinese application 201210233192.1
[3] = system: lymphoma cancer cells (Jurkat); conditions: Chinese application 201210233192.1
brain tumor cells (U87) = conditions: Chinese application 201210233192.1
[4] = system: drug-resistant brain tumor stem cells; conditions: Chinese application 201210233192.1
fungal = conditions: Chinese application 200810119948.3
formation of melanin = conditions: Chinese application 01817014.5
pieris rapae = conditions: Chinese application 01817014.5
prodenia litura = conditions: Chinese application 01817014.5
aphid = conditions: Chinese application 01817014.5

SMILES: CC(C)[C@@H](C)C=C[C@@H](C)[C@H]1CC[C@@H]2[C@]1(C)CC[C@H]1[C@]23C=C[C@]2(C[C@@H](O)CC[C@]12C)OO3 [Ergosterol peroxide, 5α,8α-Epidioxyergosta-6,22-dien-3β-ol]
- synergy with taxol in killing or damaging Hela cancer cells (Hela cancer cells): synergy with taxol
- harmful effects on immune organs and weight [1]: no harmful effects
- anti-tumor pharmacological activity ([1]; human breast cancer and liver cancer): significant anti-tumor
- inhibitory effect on malignant breast cancer cells (MT-1) [2]: significant inhibitory effect
- inhibitory effect on lymphoma cancer cells (Jurkat) [3]: significant inhibitory effect
- inhibitory effect on brain tumor cells (U87) (brain tumor cells (U87)): significant inhibitory effect
- killing of drug-resistant brain tumor stem cells [4]: kills
- antifungal bioactivity (fungal): remarkable antifungal bioactivity
- inhibitory effects on the formation of melanin (formation of melanin): strong inhibitory effects
- poisoning effects on agricultural pests (pieris rapae): poisoning effects
- poisoning effects on agricultural pests (prodenia litura): poisoning effects
- poisoning effects on agricultural pests (aphid): poisoning effects
